What is called Cmax is the maximum level reached in the sampled fluid or tissue. By CC50 is commonly meant the concentration giving 50% cytotoxicity. What is called AUC(0-t) is the area under the concentration-time curve up to a stated or last time point. Broadly, the EC50 is the concentration needed to bring the measured effect to its halfway point. Low readings indicate an effect from little substance, high ones a need for much substance. A word on the CL/F: it is clearance divided by bioavailability, as obtained after extravascular dosing. A word on the half-life: it is the time in which the quantity being followed falls by half. Read a low half-life as fast loss. Broadly, the IC50 is the point on the concentration scale where inhibition reaches its midpoint. A word on the bioavailability: it is dose-corrected exposure relative to a reference, in per cent. One may read the Tmax as the time from dosing to the highest level. As a reminder, the inhibition is the drop in the measured response relative to a control, in per cent. Lower therefore signals little suppression.

The values that follow come from ChEMBL document CHEMBL5131537 (J Med Chem, 2022).

The nature of series [1]: Acute toxicity in 12 hr fasted female CD-1(ICR) mouse assessed as pathological damage in lung at 2 g/kg, IG administered as single dose measured after 14 days by H and E staining based analysis. The series is classed as tissue-based. To be noted: in vivo, po, 2000 mg/kg, 336 h, time 14 day.
Series [2] is described as follows: Cmax in Sprague-Dawley rat at 5 mg/kg, po measured after 0.083 to 24 hrs by LC-MS analysis. The series is classed as ADME, organism-based. Details: dose 5 mg/kg, time 0.083-24 hrs, route po. To be noted: in vivo.
The nature of series [3]: Cytotoxicity against human MT4 cells assessed as reduction in cell viability by MTT assay. The series is classed as toxicity, cell-based. On the technique in general: Tetrazolium assays rely on reduction of a dye to a coloured formazan, in cell work by metabolically active cells.
The nature of series [4]: AUC (0 to t) in Sprague-Dawley rat at 5 mg/kg, po measured after 0.083 to 24 hrs by LC-MS analysis. The series is classed as ADME, organism-based. The arrangement: dose 5 mg/kg, time upper 24 hrs, time lower 0.083 hrs, route po. To be noted: in vivo.
In series [5] the test system is Human immunodeficiency virus 1. In words: Antiviral activity against HIV-1 IIIB harboring reverse transcriptase […] mutant infected in human MT4 cells by MTT assay. The series is classed as functional, organism-based. The conditions noted are these: Human immunodeficiency virus 1, IIIB.
Series [6] in a line: Clearance in Sprague-Dawley rat at 5 mg/kg, po measured after 0.083 to 24 hrs by LC-MS analysis. To be noted: in vivo, time 0.083-24 hrs. The series is classed as ADME, organism-based.
Series [7] can be described thus: AUC (0 to t) in Sprague-Dawley rat at 1 mg/kg, iv measured after 0.083 to 24 hrs by LC-MS analysis. The conditions noted are these: in vivo. The series is classed as ADME, organism-based. The arrangement: time upper 24 hrs, dose 1 mg/kg, time lower 0.083 hrs, route iv.
Series [8] is described as follows: Half life in Sprague-Dawley rat at 1 mg/kg, iv measured after 0.083 to 24 hrs by LC-MS analysis. The series is classed as ADME, organism-based. The conditions noted are these: in vivo, time 0.083-24 hrs.
The next series has as its target Cytochrome P450 2C19 (Homo sapiens, UniProt P33261). Briefly: Inhibition of CYP2C19 in human liver microsomes using S-mephenytoin as substrate incubated for 15 to 45 mins in presence of NADPH. (In general: Liver microsomes are vesicles of endoplasmic reticulum, rich in cytochrome P450 enzymes.)
Another series deals with Cytochrome P450 2D6 (Homo sapiens, UniProt P10635). Briefly: Inhibition of CYP2D6 in human liver microsomes using dextromethorphan as substrate incubated for 15 to 45 mins in presence of NADPH.
Sequence of Cytochrome P450 2D6 (P10635 whole entry): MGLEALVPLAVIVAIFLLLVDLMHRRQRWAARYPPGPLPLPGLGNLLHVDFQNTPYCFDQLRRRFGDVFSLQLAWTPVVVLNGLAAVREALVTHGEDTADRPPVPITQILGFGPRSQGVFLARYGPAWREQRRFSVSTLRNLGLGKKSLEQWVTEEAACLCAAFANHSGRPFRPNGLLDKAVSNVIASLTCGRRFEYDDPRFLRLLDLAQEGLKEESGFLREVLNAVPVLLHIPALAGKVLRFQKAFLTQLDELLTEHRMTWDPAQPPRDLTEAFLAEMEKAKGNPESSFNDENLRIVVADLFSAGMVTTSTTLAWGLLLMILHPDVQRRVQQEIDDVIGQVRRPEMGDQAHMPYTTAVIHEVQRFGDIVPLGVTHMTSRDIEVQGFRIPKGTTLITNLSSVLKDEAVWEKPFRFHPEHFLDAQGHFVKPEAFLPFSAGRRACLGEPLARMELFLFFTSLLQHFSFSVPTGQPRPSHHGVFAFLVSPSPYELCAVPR
Series [9] can be described thus: Acute toxicity in 12 hr fasted male CD-1(ICR) mouse assessed as pathological damage in brain at 2 g/kg, IG administered as single dose measured after 14 days by H and E staining based analysis. The series is classed as tissue-based. The conditions noted are these: in vivo, po, 2000 mg/kg, 336 h, time 14 day.
Series [10] deals with Voltage-gated inwardly rectifying potassium channel KCNH2 (Homo sapiens, UniProt Q12809). Briefly: Inhibition of human ERG potassium channel transfected in CHO cells by automated patch clamp assay. The series is classed as toxicity, cell-based. (In patch-clamp work, channel activity is measured electrically.)
Sequence of Voltage-gated inwardly rectifying potassium channel KCNH2 (Q12809 whole entry): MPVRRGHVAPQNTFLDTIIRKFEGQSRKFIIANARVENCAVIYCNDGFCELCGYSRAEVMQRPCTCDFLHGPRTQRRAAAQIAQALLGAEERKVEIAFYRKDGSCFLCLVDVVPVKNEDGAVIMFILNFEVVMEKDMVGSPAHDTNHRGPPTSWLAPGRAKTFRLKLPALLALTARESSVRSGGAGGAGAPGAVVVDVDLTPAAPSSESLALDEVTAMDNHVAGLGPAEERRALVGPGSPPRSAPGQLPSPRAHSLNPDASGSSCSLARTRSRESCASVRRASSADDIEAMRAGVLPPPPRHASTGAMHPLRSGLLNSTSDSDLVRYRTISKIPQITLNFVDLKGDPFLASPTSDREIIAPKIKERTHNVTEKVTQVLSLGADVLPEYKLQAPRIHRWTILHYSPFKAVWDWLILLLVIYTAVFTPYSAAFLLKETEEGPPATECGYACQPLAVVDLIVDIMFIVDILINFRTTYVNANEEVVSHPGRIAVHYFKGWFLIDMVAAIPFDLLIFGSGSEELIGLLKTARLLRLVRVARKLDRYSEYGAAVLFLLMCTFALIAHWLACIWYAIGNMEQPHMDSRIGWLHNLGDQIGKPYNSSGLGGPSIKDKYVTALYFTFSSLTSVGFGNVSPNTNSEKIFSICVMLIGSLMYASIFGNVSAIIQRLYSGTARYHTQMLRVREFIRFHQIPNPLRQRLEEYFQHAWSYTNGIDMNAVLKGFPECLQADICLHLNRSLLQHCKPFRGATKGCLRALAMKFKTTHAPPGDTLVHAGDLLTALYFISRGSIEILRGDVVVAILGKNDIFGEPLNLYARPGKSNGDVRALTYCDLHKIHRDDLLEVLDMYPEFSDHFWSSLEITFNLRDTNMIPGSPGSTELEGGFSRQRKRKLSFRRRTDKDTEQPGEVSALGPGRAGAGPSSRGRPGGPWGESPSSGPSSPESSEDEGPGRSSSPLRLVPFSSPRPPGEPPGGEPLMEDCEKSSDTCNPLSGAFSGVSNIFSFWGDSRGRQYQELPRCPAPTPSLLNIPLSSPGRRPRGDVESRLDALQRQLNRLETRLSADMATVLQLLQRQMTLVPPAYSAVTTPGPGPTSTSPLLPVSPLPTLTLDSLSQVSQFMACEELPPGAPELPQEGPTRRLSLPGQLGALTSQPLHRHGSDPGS
A short description of series [11]: Acute toxicity in 12 hr fasted female CD-1(ICR) mouse assessed as pathological damage in liver at 2 g/kg, IG administered as single dose measured after 14 days by H and E staining based analysis. The series is classed as tissue-based. To be noted: in vivo, po, 2000 mg/kg, 336 h, time 14 day.
The nature of series [12]: Oral bioavailability in Sprague-Dawley rat at 5 mg/kg measured after 0.083 to 24 hrs by LC-MS analysis. The series is classed as ADME, organism-based. The conditions noted are these: in vivo, time 0.083-24 hrs.
Series [13] in a line: Tmax in Sprague-Dawley rat at 1 mg/kg, iv measured after 0.083 to 24 hrs by LC-MS analysis. The conditions noted are these: in vivo, time 0.083-24 hrs. The series is classed as ADME, organism-based.
Series [14] can be described thus: Acute toxicity in 12 hr fasted female CD-1(ICR) mouse assessed as pathological damage in brain at 2 g/kg, IG administered as single dose measured after 14 days by H and E staining based analysis. The conditions noted are these: in vivo, po, 2000 mg/kg, 336 h, time 14 day. The series is classed as tissue-based.
The target of a further series is hERG (KCNH2) (Homo sapiens, UniProt Q12809). Briefly: Inhibition of human ERG potassium channel transfected in CHO cells at 40 uM by automated patch clamp assay. The series is classed as toxicity, cell-based. To be noted: CHO cells transfected with hERG.
Sequence of hERG (KCNH2) (Q12809 whole entry): as above

Sequence of Cytochrome P450 2C19 (P33261 whole entry): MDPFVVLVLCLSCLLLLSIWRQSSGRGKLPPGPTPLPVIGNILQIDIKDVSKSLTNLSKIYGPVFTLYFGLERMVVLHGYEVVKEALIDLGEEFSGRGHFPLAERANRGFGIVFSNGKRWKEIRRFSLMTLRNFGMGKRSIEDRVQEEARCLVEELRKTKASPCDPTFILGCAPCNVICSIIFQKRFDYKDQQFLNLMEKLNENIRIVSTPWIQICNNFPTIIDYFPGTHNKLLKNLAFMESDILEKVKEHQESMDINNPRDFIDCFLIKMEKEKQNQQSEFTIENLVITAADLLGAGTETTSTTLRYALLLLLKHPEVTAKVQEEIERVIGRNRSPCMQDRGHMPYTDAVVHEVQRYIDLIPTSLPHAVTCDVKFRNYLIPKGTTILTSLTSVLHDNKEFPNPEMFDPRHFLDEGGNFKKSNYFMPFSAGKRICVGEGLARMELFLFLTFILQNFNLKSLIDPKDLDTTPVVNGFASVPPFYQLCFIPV

For `COc1cc(-c2ccc(C#N)cc2)ccc1Oc1cc(N)nc(Nc2ccc(C#N)cc2)n1`, the Activity result in [1], in series [9], in series [11] and in [14] was “Non-Toxic” each time. This molecule came in with a Cmax in series [2] of 44.8 ng/mL. Moreover, the CC50 in series [3] is 120 µM. For the same molecule, the AUC(0-t) was 116 ng·h/mL in series [4] and 326 ng·h/mL in series [7]. In series [5], the EC50 worked out at 0.019 µM. The CL/F in [6] is 675 mL/min/kg. In series [8], this molecule had a half-life of 60 min. Further, the figures for the IC50 (on Cytochrome P450 2C19; on Cytochrome P450 2D6; in series [10]) were 4.51 µM, more than 50 µM and more than 40 µM, respectively. The same molecule yielded a bioavailability in [12] of 7.57%. Besides, the Tmax in [13] was 4.8 min. The same molecule showed an inhibition at 40 µM against hERG (KCNH2) of 35.9%.
